Measured values published in patent US20060257322A1, “Pharmaceutical agents that contain fluoroalkyl-containing metal complexes and epothilones” (priority 2005, published 2006).
Values joined by “and” are separate entries in the source; they are usually repeats but may differ in a detail not shown here. Equal entries are not always repeated. Where two headings read alike, the source gives them in different places.

Columns and labels:
[1] = format: in vivo, hairless mice; settings: for Relative animal weights: day 0 (about 30-35 g) normalized to 1
Method: (§1) A549 lung tumors were induced in hairless mice (4×10^6 cells/30 μl of full medium). Animal weights and tumor surface areas/volumes were determined, and in this case, the tumor surface area or the tumor volume (based on an ellipsoid of revolution) was calculated. Length and width of the tumor were measured with vernier calipers. After reaching the size of a pea, the treatment was begun.
(§2) • (a) 20 mmol of Gd/l of the Gd complex compound as mentioned in Example 1 or 3 (as a comparison solution=Blank reading) • (b) 1.5 mmol/l of the epothilone as mentioned in Example 1 or 3, in aqueous hydroxypropyl-β-cyclodextrin solution (prior art) (For the production of formulations in the prior art, see WO 99/07692 and WO 00/4902 1) • (c) Formulation of Example 1 or 3 (formulation according to the invention) Dosages: • (a) 100 μmol of Gd/kg of body weight • (b) 11 μmol/kg or 18 μmol/kg of body weight • (c) 100 μmol of Gd/kg+11 (or 18) μmol of epothilone/kg of body weight (corresponds to the ratio in the formulation of Example 1 or 3).
(§3) The animal weights and tumor sizes were measured over a period of 20 days after intravenous administration.

A549 lung tumors = format: in vivo, hairless mice; settings: day 0 normalized to 1
Method: as §1, §2, §3

[2] = Day 5, 11 μmol of epothilone/kg of body weight i.v. (formulations: plus 100 μmol of Gd/kg)
[3] = Day 5, 18 μmol of epothilone/kg of body weight i.v. (formulations: plus 100 μmol of Gd/kg)
[4] = Day 11, 11 μmol of epothilone/kg of body weight i.v. (formulations: plus 100 μmol of Gd/kg)
[5] = Day 11, 18 μmol of epothilone/kg of body weight i.v. (formulations: plus 100 μmol of Gd/kg)
[6] = Day 15, 11 μmol of epothilone/kg of body weight i.v. (formulations: plus 100 μmol of Gd/kg)
[7] = Day 15, 18 μmol of epothilone/kg of body weight i.v. (formulations: plus 100 μmol of Gd/kg)
[8] = Day 20, 11 μmol of epothilone/kg of body weight i.v. (formulations: plus 100 μmol of Gd/kg)
[9] = Day 20, 18 μmol of epothilone/kg of body weight i.v. (formulations: plus 100 μmol of Gd/kg)
[10] = first days after substance administration, 11 μmol of epothilone/kg of body weight i.v.
[11] = first days after substance administration, 18 μmol of epothilone/kg of body weight i.v.

Row | Compound | Relative animal weights [1, 2] | Relative animal weights [1, 3] | Relative animal weights [1, 4] | Relative animal weights [1, 5] | Relative animal weights [1, 6] | Relative animal weights [1, 7] | Relative animal weights [1, 8] | Relative animal weights [1, 9] | Relative animal weights (in words) [1, 10] | Relative animal weights (in words) [1, 11] | Relative tumor surface area (A549 lung tumors; [2]) | Relative tumor surface area (A549 lung tumors; [3]) | Relative tumor surface area (A549 lung tumors; [4]) | Relative tumor surface area (A549 lung tumors; [5]) | Relative tumor surface area (A549 lung tumors; [6]) | Relative tumor surface area (A549 lung tumors; [7]) | Relative tumor surface area (A549 lung tumors; [8]) | Relative tumor surface area (A549 lung tumors; [9]) | Relative animal weights (in words) ([1]; mouse, in vivo, iv)
1 | C=CC[C@H]1C(=O)C(C)(C)[C@@H](O)CC(=O)O[C@H](c2ccc3sc(C)nc3c2)C[C@@H]2O[C@]2(C)CCC[C@H](C)[C@@H]1O [Epothilone F, (1S,3S,7S,10R,11S,12S,16R)-7,11-Dihydroxy-3-(2-methylbenzothiazol-5-yl)-10-(prop-2-en-1-yl)-8,8,12,16-tetramethyl-4,17-dioxabicyclo[14.1.0]heptadecane-5,9-dione] | 0.94 | 0.92 | 0.97 | 0.93 | 0.97 | 0.97 | 0.96 | 0.99 | small weight loss | small weight loss | 1.1 ± 0.1 | 1.1 ± 0.1 | 1.3 ± 0.2 | 1.2 ± 0.2 | 1.5 ± 0.3 | 1.4 ± 0.1 | 1.5 ± 0.4 | 1.5 ± 0.2 | –
2 | C=CC[C@H]1C(=O)C(C)(C)[C@@H](O)CC(=O)O[C@H](/C(C)=C/c2csc(C)n2)C/C=C(/C)CCC[C@H](C)[C@@H]1O [Epothilone K, (4S,7R,8S,9S,13(Z),16S(E))-4,8-Dihydroxy-16-(1-methyl-2-(2-methylthiazol-4-yl)ethenyl)-1-oxa-5,5,9,13-tetramethyl-7-(prop-2-en-1-yl)-cyclohexadec-13-ene-2,6-dione] | – | – | – | – | – | – | – | – | – | – | – | 1.1 ± 0.1 | – | 1.3 ± 0.3 and 1.3 ± 0.1 | – | 1.5 ± 0.2 | – | 1.6 ± 0.1 and 1.5 ± 0.2 | small weight loss
3 | C#CCC[C@H]1C(=O)C(C)(C)[C@@H](O)CC(=O)O[C@H](/C(C)=C/c2ccccn2)C/C=C(/C)CCC[C@H](C)[C@@H]1O [Epothilone I, (4S,7R,8S,9S,13(Z),16S(E))-4,8-Dihydroxy-16-(1-methyl-2-(2-pyridyl)ethenyl)-1-oxa-5,5,9,13-tetramethyl-7-(but-3-in-1-yl)-cyclohexadec-13-ene-2,6-dione] | 0.93 | – | 0.97 | – | 0.97 | – | 0.98 | – | small weight loss | – | 1.2 ± 0.1 | – | 1.3 ± 0.3 | – | 1.4 ± 0.3 | – | 1.5 ± 0.1 | – | –
4 | Cc1nc(/C=C(\Cl)[C@@H]2C[C@@H]3O[C@]3(C)CCC[C@H](C)[C@H](O)[C@@H](C)C(=O)C(C)(C)[C@@H](O)CC(=O)O2)cs1 [Epothilone C, (1S,3S(Z),7S,10R,11S,12S,16R)-7,11-Dihydroxy-3-(1-chloro-2-(2-methyl-4-thiazolyl)ethenyl)-8,8,10,12,16-pentamethyl-4,17-dioxabicyclo[14.1.0]heptadecane-5,9-dione] | – | – | – | – | – | – | – | – | – | – | 1.1 ± 0.1 | 1.1 ± 0.1 | 1.4 ± 0.3 | 1.3 ± 0.3 | 1.5 ± 0.3 | 1.6 ± 0.3 | 1.5 ± 0.2 | 1.5 ± 0.2 | small weight loss
5 | CC[C@H]1C(=O)C(C)(C)[C@@H](O)CC(=O)O[C@H](/C(F)=C/c2ccccn2)C/C=C(/C)CCC[C@H](C)[C@@H]1O [Epothilone G, 4S,7R,8S,9S,13(Z),16S(Z)-4,8-Dihydroxy-16-(1-fluoro-2-(2-pyridyl)ethenyl)-7-ethyl-1-oxa-5,5,9,13-tetramethyl-cyclohexadec-13-ene-2,6-dione] | 0.94 | 0.945 | 0.97 | 0.97 | 0.95 | 0.97 | 0.96 | 0.98 | small weight loss | small weight loss | 1.1 ± 0.1 | 1.1 ± 0.1 | 1.3 ± 0.1 | 1.3 ± 0.4 | 1.5 ± 0.3 | 1.5 ± 0.3 | 1.6 ± 0.2 | 1.6 ± 0.2 | –
6 | C#CC[C@H]1C(=O)C(C)(C)[C@@H](O)CC(=O)O[C@H](/C(F)=C/c2csc(C)n2)C/C=C(/C)CCC[C@H](C)[C@@H]1O [Epothilone L, (4S,7R,8S,9S,13(Z),16S(Z))-4,8-Dihydroxy-16-(1-fluoro-2-(2-methylthiazol-4-yl)ethenyl)-7-(prop-2-in-1-yl)-1-oxa-5,5,9,13-tetramethyl-cyclohexadec-13-ene-2,6-dione] | 0.93 | 0.94 | 0.96 | 0.95 | 0.97 | 0.97 | 0.98 | 0.96 | small weight loss | small weight loss | 1.1 ± 0.1 | 1.1 ± 0.1 | 1.3 ± 0.1 | 1.3 ± 0.2 | 1.5 ± 0.2 | 1.5 ± 0.2 | 1.5 ± 0.2 | 1.5 ± 0.1 | –
7 | C#CC[C@H]1C(=O)C(C)(C)[C@@H](O)CC(=O)O[C@H](/C(F)=C/c2coc(C)n2)C/C=C(/C)CCC[C@H](C)[C@@H]1O [Epothilone N, (4S,7R,8S,9S,13(Z),16S(Z))-4,8-Dihydroxy-16-(1-fluoro-2-(2-methyloxazol-4-yl)ethenyl)-7-(prop-2-in-1-yl)-1-oxa-5,5,9,13-tetramethyl-cyclohexadec-13-ene-2,6-dione] | 0.94 | – | 0.97 | – | 0.98 | – | 0.96 | – | small weight loss | – | 1.1 ± 0.1 | – | 1.2 ± 0.2 | – | 1.5 ± 0.3 | – | 1.6 ± 0.4 | – | –
